From patent US20080201790A1, “Method and product for regulating cell responsiveness to external signals” (priority 1993, published 2008)
“Also recorded” adds a separate entry of the source.

Columns and labels:
[1] = system: 98 kD PC12 cell MEKK; test: MEKK immunoprecipitate kinase assay from PC12 cells with kinase inactive MEK-1; format: cell-based; details: for MEKK activity after stimulation (in words): serum starved PC12 cells, 5 minutes
Description: Reactions were stopped by the addition of 2×SDS sample buffer (20 μl). The samples were boiled for 3 minutes and subjected to SDS-PAGE and autoradiography. Raf-B was immunoprecipitated from the same untreated and treated PC12 cell lysates as above with an antiserum to a COOH-terminal peptide of Raf-B (Santa Cruz Biotechnology, Inc.) and assayed similarly. Raf-1 was immunoprecipitated with an antiserum to the 12 COOH-terminal amino acids of Raf-1 (Santa Cruz Biotechnology, Inc.).
Data represent the relative magnitude of the response for each timepoint as quantitated by phosphorimager analysis of radioactive gels from a typical experiment.
Expression of N^17Ras was induced in PC12 clones stably transfected with the N^17Ras gene by the addition of dexamethasone to the starvation media. […] PC12 cell clones stably transfected with the N^17Ras gene are less responsive to EGF-mediated activation of MEKK activity than are wild type PC12 cells. […] MEKK activity in immunoprecipitates or column fractions was dissociable from that of EGF-stimulated c-Raf-1 and Raf-B activities.
To determine whether the growth factor-mediated activation of 98 kD PC12 cell MEKK was inhibited by PKA, forskolin was used to elevate intracellular cAMP and activate PKA. […] Raf-B activity was also assayed from the same cell lysates to test whether its regulation differed from that of MEKK. Raf-B was immunoprecipitated from the same cell lysates as described above and assayed for its ability to phosphorylate MEK-1 as described above.

[2] = system: Raf-B; test: Raf-B immunoprecipitate kinase assay from PC12 cells with kinase inactive MEK-1; format: cell-based; details: PC12 cells, EGF 30 ng/ml 5 minutes
[3] = system: L929 cells; test: Propidium iodide staining of L929 clones with inducible N17 Ras or V12 Ras; format: cell-based, murine; details: IPTG-induced expression
Description: Ras expression was induced with 5 mM IPTG for 10 hours and cells were subsequently treated with 5 ng/ml TNFα in the presence or absence of 0.5 ng/ml bFGF for 16 hours. Cells were fixed and stained with propidium iodide. The percentage of apoptotic cells was calculated. Solid bars represent cells induced with IPTG; hatched bars, induced with IPTG and treated with TNFα; checked bars, induced with IPTG and treated with TNFα and bFGF.
Cell lines and culture. […] JNK activity was measured using a solid state kinase assay in which glutathione S-transferase-c-Jun (1-79) (GST-JUN) cound to glutathione-Sepharose 4B beads was used to affinity purify JNK and then JNK activity was measured in an in vitro kinase assay using the sepharose bound GST-Jun as a substrate (Hibi, M., et al. (1993) Genes & Development 7:2135-2148). […] MAPK Assay MAPK activity was measured exactly as described previously (Gardner, A. M., et al. (1994) Meth. Enzymol. 238:258-270) with the exception that MonoQ FPLC fractionation was replaced by step elution from a DEAE-Sephacel column using 0.5 M NaCl in loading buffer. […]

[4] = system: JNK; test: JNK solid state kinase assay (GST-Jun) in L929 cells; format: cell-based, murine; details: L929 cells
Description: (§1) In panel A cells were treated for 10 minutes with the indicated concentration of TNFα. JNK activation was measured using a solid phase kinase assay resulting in phosphorylation of GST-Jun. In […] the time course of MAPK activation is shown. MAPK was isolated from cell lysates on DEAE sephacel columns and MAPK activation was measured by phosphorylation of the EGFR peptide substrate. Panel C depicts the concentration curve of MAPK activation by TNFα. Cells were treated with the indicated concentration of TNFα and MAPK was assayed.
(§2) Cell lines and culture. L929 cells (ATCC CCL1 were maintained in Dulbecco's modified Eagle's medium with 5% newborn calf serum and 5% bovine calf serum (BCS) supplemented with 100 ug/ml streptomycin and 100 U/ml penicillin. The cells were grown in 10 cm dishes at 37° C. in 7.5% CO2. Cells were made quiescent where indicated by incubation in Dulbecco's modified Eagle's medium and 0.1% bovine serum albumin for 24 h. Recombinant murine TNFα and recombinant human bFGF (147aa) were from R&D Systems, Minneapolis, Minn. Cells were pretreated where indicated with the MEK-1 inhibitor PD#098059 (Parke-Davis Pharmaceutical Corp. Ann Arbor, Mich.) for 1 h at 37° C. Cells were stimulated by incubation with the indicated cytokine or growth factor for various times at 37° C. Stimulation was stopped by rinsing the plates twice with ice cold phosphate buffered saline (PBS) and lysing the cells in the appropriate lysis buffer. Cells were scraped from the plates and nuclei were pelleted for 10 min at 14,000 RPM in a microcentrifuge. JNK assay. JNK activity was measured using a solid state kinase assay in which glutathione S-transferase-c-Jun (1-79) (GST-JUN) cound to glutathione-Sepharose 4B beads was used to affinity purify JNK and then JNK activity was measured in an in vitro kinase assay using the sepharose bound GST-Jun as a substrate (Hibi, M., et al. (1993) Genes & Development 7:2135-2148). Stimulated or unstimulated cells were lysed in 0.5% Nonidet P-40, 20 mM HEPES pH 7.2, 100 mM NaCl, 2 mM dithiothreitol, 1 mM EDTA, 1.0 mM phenylmethylsulfonylfluoride, 1 μg/ml aprotinin and the nuclei pelleted. Lysates were normalized for protein content. JNK was affinity purified from 50-100 μg of cell lysate by the addition of 10 ul of GST-Jun sepharose slurry (2 μg GST-Jun). Binding to GST-Jun efficiently isolates the two major forms of JNK (p45 and p55) and under the conditions used JNK isolation was linear for 10-250 μg of cell lysate. The lysates were rotated at 4° C. for 1-3 h. Beads were washed twice in lysis buffer and then twice in PAN (10 mM PIPES, pH 7.0, 100 mM NaCl, 21 μg/ml aprotinin). Kinase reactions were carried out at 30° C. for 15 min in 20 mM Hepes pH 7.2, 20 mM β-glycerophosphate, 10 mM p-nitrophenyl phosphate, 10 mM MgCl2, 1 mM dithiothreitol, 50 μm sodium vanadate, 10 μCi γ^32P-ATP 4300 Ci/mmole. The kinase reaction was linear from 0-30 min. MAPK Assay MAPK activity was measured exactly as described previously (Gardner, A. M., et al. (1994) Meth. Enzymol. 238:258-270) with the exception that MonoQ FPLC fractionation was replaced by step elution from a DEAE-Sephacel column using 0.5 M NaCl in loading buffer. The eluate was assayed in triplicate using the epidermal growth factor receptor 662-681 peptide (EGFR662-681) as a selective substrate for MAPK activity (Heasley, L. E., et al. (1994) American Journal of Physiology (Renal Fluid Electrolyte Physiol. 36) 267:F366-F373). […] Cells were lysed by scraping in ice cold RIPA buffer (50 mM Tris-HCl, pH 7.2, 150 mM NaCl, 0.1% SDS, 0.5% sodium deoxycholate, 1.0% Triton X-100, 10 mM sodium pyrophosphate, 25 mM β-glycerophosphate, 2 mM sodium vanadate, 2.1 μg/ml aprotinin) and the nuclei were pelletted. […]

[5] = system: p42/p44 MAPK; test: MAPK assay (DEAE-Sephacel, EGFR662-681 peptide) in L929 cells; format: cell-based, murine; details: L929 cells
Description: as §1
FIG. 26 depicts the activation of MAPK by bFGF in L929 cells. Serum starved L929 cells were stimulated for 10 min with the indicated concentration of bFGF.
as §2

[6] = system: GST-Ras^V12; test: Direct binding of purified MEKKCOOH-His to GST-Ras^V12, read by phosphorylation of kinase inactive MEK1; details: 100 μM peptide, pre-incubation 1 hr at 4° C.
From the text: A construct encoding the kinase domain of a Rat MEKK1 cDNA (95% identical to mouse MEKK1) with a N-terminal hexahistidine tag (referred to herein as MEKKCOOH-His; provided by Dr. Melanie Cobb, Department of Pharmacology, University of Texas Southwestern Medical School, Dallas, Tex.) was expressed in bacteria and soluble active enzyme was purified on Ni2+-NTA agarose according to the method generally described in Gardner et al. (Methods of Enzymology 238:258-270, 1994) Purified recombinant MEKKCOOH-His was incubated with either GST or GST-Ras^V12 in PAN buffer (10 mM PIPES [pH 7.0], 100 mM NaCl, 0.2 U/ml aprotinin) for 1 hr at 4° C. The agarose beads were pelleted and washed 3 times in PAN buffer. […] To test the direct interaction of MEKK1 with the effector domain of Ras, samples were prepared by pre-incubating the agarose beads with either 100 μM of Ras peptide consisting of residues 17-42 of H-Ras or 100 μM of Ras control peptide ([D-Arg^1,D-Phe^5,DTrp^7,9,Leu^11] substance P peptide for 1 hr at 4° C. prior to addition of the MEK1 substrate. A control reaction containing wild-type MEKK1 which autophosphorylates, served as a marker for the MEKK1 substrate. Reactions were terminated by addition of 5× Laemmlei SDS sample buffer, boiled and resolved by SDS-PAGE.

[7] = system: Swiss 3T3 cells; test: MEKKCOOH-induced cell death after nuclear microinjection of expression plasmids; format: cell-based
Description: Swiss 3T3 and REF52 cells were plated on acid-washed glass cover slips in Dulbecco's Modified Eagle's Medium (DMEM) and 10% bovine calf serum (BCS) or newborn calf serum (NCS). Cells were placed in DMEM/0.1% calf serum for overnight incubation prior to microinjection and used for injection at 50-70% confluence. Injections were performed with an Eppendorf automated microinjection system with needles pulled from glass capillaries on a vertical pipette puller (Kopf, Tujunga, Calif.). Cells were injected with pCMVβ-gal in the presence or absence of pCMV5MEKKCOOH or pCMV5BxBRaf at 20-100 ng/μl for each expression plasmid in 100 mM KC1, 5 mM NaPO4, pH 7.3. Following injection cells were placed in 1% NCS for 12-18 hr (Swiss 3T3) or 42 hr (REF52) prior to fixation with paraformaldehyde and staining. Similar results were obtained when cells were placed in 10% NCS after microinjection. Propidium iodide ([…]) was used to stain DNA. X-Gal reactions were performed for six hr.
Swiss 3T3 cells were microinjected with 100 ng/μl pCMVβ-gal and 20 ng/μl pCMV5MEKKCOOH. To label free DNA ends fixed and rehydrated cells were incubated with terminal deoxytransferase (TDT) and 10 nM biotin-dUTP following the manufacturer's instructions (Boehringer-Mannheim). Cells were stained with FITC-streptavidin to label DNA fragments. β-gal was detected using rabbit anti-p-gal antibody (Cappel Labs) and a rhodamine-labeled goat anti-rabbit antibody (Cappel Labs).
Seventeen hours after injection cells were fixed and stained for, β-galactosidase activity with X-Gal. Injected cells attached to the coverslip were scored as positive for cell death when they were highly condensed, small round cells.

[8] = 100 ng/μl plasmids, seventeen hours after injection, X-Gal

NGF: Nerve growth factor
MEKK activity after stimulation (in words) [1]: slight increase in MEKK activity; also recorded: also activated MEKK, although to a lesser degree than EGF

CCCCCCCCCCCCCC(=O)O[C@@H]1[C@@H](C)[C@@]2(O)[C@@H](C=C(CO)C[C@]3(O)C(=O)C(C)=C[C@@H]23)[C@H]2C(C)(C)[C@]12OC(C)=O [TPA, reference compound]
MEKK activity after stimulation (in words) [1]: also activated MEKK, although to a lesser degree than EGF

N17 Ras: Dominant negative Ha-ras (Asn 17), inhibitory Ras [reference compound]
effect on activation of Raf-B by EGF [2]: greatly reduced
effect on TNFα induced apoptosis ([3]; 5 ng/ml TNFα): did not affect
effect on ability of bFGF to protect against TNFα-mediated cell death ([3]; TNFα plus bFGF): markedly inhibit
effect on TNFα stimulation of JNK [4]: had no effect on TNF stimulation of JNK
effect on activation of MEKK by EGF ([1]; PC12 cells, EGF 30 ng/ml 5 minutes): inhibited the activation of MEKK by EGF
effect on bFGF stimulation of MAPK activity [5]: significantly blunted bFGF stimulation of MAPK

[D-Arg^1,D-Phe^5,D-Trp^7,9,Leu^11] substance P peptide [reference compound]
effect on binding of GST-Ras^V12(GTPγS) agarose to MEKKCOOH-His [6]: able to bind

β-gal [reference compound]
Condensed Cells (number) [7, 8]: 4
Condensed Cells (percent of cells injected) [7, 8]: (1%)
injected cells with an altered morphology ([7]; 48-72 hours post-injection): < 1%

Ras effector peptide: Ras peptide consisting of residues 17-42 of H-Ras (SALTIQLIQNHFVDEYDPTIEDSYRK; UniProt P01112 17-42, looked up, fragment)
effect on binding of GST-Ras^V12(GTPγS) agarose to MEKKCOOH-His [6]: prevented the binding
